Measurements reported in patent publication US20250326799A1, “AGENTS INDUCING VASCULARISATION” (Coegin Pharma AB, priority 2022, published 2025).

Experiments:
[1] = tested on: human coronary smooth muscle cells (HCASMCs); test: Low-oxygen induced apoptosis, active caspase-3/-7, smooth muscle cells; assay type: cell-based
Protocol: The effect of FOL-026 peptide treatment on smooth muscle cell proliferation (FIG. 25a) and apoptosis (FIG. 25c) induced with low-oxygen condition was evaluated with the uptake of BrdU (n=10 per group) and active caspase-3/-7 (n=6-8 per group) separately. H2O2 measurement (FIG. 25b) of smooth muscle cells pre-incubated with FOL-26 peptides after 50 ug/ml oxidized Low-density Lipoprotein (oxLDL) stimulation for 2 hours (n=6-7 per group). Representative images of scratch wound assay in vitro are shown (FIG. 26a) and the ability of wound healing (FIG. 26b) in human coronary smooth muscle cells (HCASMCs) treated with FOL-026 peptides was measured by image J software (n=10 per group). Scale bar=150 um. Data are presented as means±SEM and acquired from 3 to 4 independent replicate tests. *P<0.05, **P<0.01, ***P<0.001, ****P<0.0001 by one-way ANOVA and Dunnett's post-hoc test.

[2] = tested on: human umbilical vascular endothelial cells (HUVECs); test: ROS level (H2O2 measurement) after oxLDL, HUVECs; assay type: cell-based; settings: HUVECs pre-incubated with peptide; 50 ug/ml oxLDL for 2 hours
Protocol: (§1) The impact of FOL-026 peptide on human umbilical vascular endothelial cells (HUVECs) proliferation (FIG. 18a) and apoptosis (FIG. 18c) induced with low-oxygen condition was determined by BrdU uptake (n=8-9 per group) and active caspase-3/-7 (n=7-10 per group) separately. The ROS level (FIG. 18b) activated by 50 ug/ml oxidized Low-density Lipoprotein (oxLDL) for 2 hours in cells pre-incubated with FOL-026 peptides was assessed using H2O2 measurement (n=4-8 per group). Representative pictures of endothelial migration into an in vitro scratch injury were shown (FIG. 19a) and the wound closure rate (FIG. 19b) in HUVECs stimulated with increasing concentration of FOL-026 peptide was quantified by image J software (n=8-9 per group). Scale bar=150 um. Data are presented as means±SEM and acquired from 3 to 4 independent replicate tests. *P<0.05, **P<0.01, ****P<0.0001 by one-way ANOVA and Dunnett's post-hoc test.

[3] = tested on: human umbilical vascular endothelial cells (HUVECs); test: Low-oxygen induced apoptosis, active caspase-3/-7, HUVECs; assay type: cell-based
Protocol: as §1
The efficiency of small interfering RNA transfection for 48 hours in HUVECs was confirmed by qRT-PCR (n=4) (FIG. 22a). […]

[4] = Vessel density, CD31+ positive area; settings: in vivo
Protocol: Quantified measurement of total length (FIG. 20b), total master segments length (FIG. 20c), total branching length (FIG. 20d) and total segments length (FIG. 20e) were performed to evaluate angiogenesis in vitro (n=7 per group for FIG. 29 b-e). The quantification of vessel density was assessed with CD31+ positive area (FIG. 21a, n=13 per group). Western blot analysis of phosphorylated AKT (pAKT-T308), AKT, phosphorylated ERK1/2 (p-ERK1/2) and ERK1/2 in endothelial cells stimulated with FOL-26 peptides for 48 hours (FIG. 21b). Quantification of phosphorylation intensities normalized to respective total expressions (FIG. 21c-d, n=3 per group).

VDTYDGGISVVYGLR [FOL-026]
smooth muscle cell apoptosis induced with low-oxygen condition (active caspase-3/-7) [1]: inhibits apoptosis
ROS levels induced by oxLDL (H2O2 measurement) [2]: reduce the amount of ROS levels
cell apoptosis at 0.1% oxygen after NRP-1 knock-down (active caspase-3/-7) ([3]; HUVECs transfected with siRNA-NC or siNRP-1): blocks the effect
low oxygen induced apoptosis (active caspase-3/-7) ([3]; HUVECs, low-oxygen condition): alleviates the effect of low oxygen induced apoptosis
vessel density (CD31+ positive area) [4]: increased vessel density
